One block for each compound: values may come before it. Activity calls are given as the source filed them. No cut-off for these calls is given here.
How the values were obtained:
[1] = molecular target: T1, Melanocyte-stimulating hormone receptor (Homo sapiens, UniProt Q01726); experiment: Agonist activity at human recombinant MC1 receptor expressed in HEK293 cells assessed as cAMP accumulation by enzyme fragment complementation assay; assay type: functional, cell-based
Target sequence in this assay (Q01726 whole entry, the tested form may be a part): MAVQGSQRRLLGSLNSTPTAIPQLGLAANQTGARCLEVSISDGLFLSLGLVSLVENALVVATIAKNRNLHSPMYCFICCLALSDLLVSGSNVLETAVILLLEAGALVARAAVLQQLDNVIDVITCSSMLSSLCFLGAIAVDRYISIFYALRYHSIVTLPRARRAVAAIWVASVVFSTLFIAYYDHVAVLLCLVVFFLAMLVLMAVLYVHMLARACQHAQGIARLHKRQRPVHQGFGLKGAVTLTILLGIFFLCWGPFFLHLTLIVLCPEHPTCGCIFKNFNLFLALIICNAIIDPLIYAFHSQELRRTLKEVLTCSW

Melanocortin receptor 5 [2] = molecular target: T2, Melanocortin receptor 5 (Homo sapiens, UniProt P33032); experiment: Agonist activity at human recombinant MC5 receptor expressed in HEK293 cells assessed as cAMP accumulation by beta lactamase reporter gene assay; assay type: functional, cell-based
T2 sequence (P33032 whole entry, the tested form may be a part): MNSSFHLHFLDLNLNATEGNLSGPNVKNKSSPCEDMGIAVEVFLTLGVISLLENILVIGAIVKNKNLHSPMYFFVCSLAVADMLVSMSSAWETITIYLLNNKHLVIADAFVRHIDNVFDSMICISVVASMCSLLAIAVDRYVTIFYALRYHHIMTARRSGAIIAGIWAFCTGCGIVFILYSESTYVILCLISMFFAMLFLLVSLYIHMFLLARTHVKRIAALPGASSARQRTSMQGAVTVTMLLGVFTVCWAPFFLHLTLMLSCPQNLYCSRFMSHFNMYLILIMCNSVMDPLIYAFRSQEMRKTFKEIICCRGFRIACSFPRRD

Melanocortin receptor 3 [3] = molecular target: T3, Melanocortin receptor 3 (Homo sapiens, UniProt P41968); experiment: Agonist activity at human recombinant MC3 receptor expressed in CHO cells assessed as cAMP accumulation by enzyme fragment complementation assay; assay type: functional, cell-based
T3 sequence (P41968 whole entry, the tested form may be a part): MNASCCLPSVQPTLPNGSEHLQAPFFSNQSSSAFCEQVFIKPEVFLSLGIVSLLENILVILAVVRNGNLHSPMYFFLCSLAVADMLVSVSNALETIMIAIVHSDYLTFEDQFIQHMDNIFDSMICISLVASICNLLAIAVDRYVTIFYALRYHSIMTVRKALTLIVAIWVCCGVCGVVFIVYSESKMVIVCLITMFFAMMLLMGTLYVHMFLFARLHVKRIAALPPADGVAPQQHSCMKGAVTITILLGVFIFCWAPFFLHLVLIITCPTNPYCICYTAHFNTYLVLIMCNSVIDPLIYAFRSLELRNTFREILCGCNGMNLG

Melanocortin receptor 3 [4] = molecular target: T3, Melanocortin receptor 3; experiment: Agonist activity at human recombinant MC3 receptor expressed in CHO cells assessed as cAMP accumulation by enzyme fragment complementation assay relative to […]; assay type: functional, cell-based
[5] = molecular target: Voltage-gated inwardly rectifying potassium channel KCNH2 (Homo sapiens, UniProt Q12809); experiment: Displacement of [3H]dofetilide from human ERG expressed in CHO cells by patch clamp method
Chain of Voltage-gated inwardly rectifying potassium channel KCNH2 (Q12809 whole entry): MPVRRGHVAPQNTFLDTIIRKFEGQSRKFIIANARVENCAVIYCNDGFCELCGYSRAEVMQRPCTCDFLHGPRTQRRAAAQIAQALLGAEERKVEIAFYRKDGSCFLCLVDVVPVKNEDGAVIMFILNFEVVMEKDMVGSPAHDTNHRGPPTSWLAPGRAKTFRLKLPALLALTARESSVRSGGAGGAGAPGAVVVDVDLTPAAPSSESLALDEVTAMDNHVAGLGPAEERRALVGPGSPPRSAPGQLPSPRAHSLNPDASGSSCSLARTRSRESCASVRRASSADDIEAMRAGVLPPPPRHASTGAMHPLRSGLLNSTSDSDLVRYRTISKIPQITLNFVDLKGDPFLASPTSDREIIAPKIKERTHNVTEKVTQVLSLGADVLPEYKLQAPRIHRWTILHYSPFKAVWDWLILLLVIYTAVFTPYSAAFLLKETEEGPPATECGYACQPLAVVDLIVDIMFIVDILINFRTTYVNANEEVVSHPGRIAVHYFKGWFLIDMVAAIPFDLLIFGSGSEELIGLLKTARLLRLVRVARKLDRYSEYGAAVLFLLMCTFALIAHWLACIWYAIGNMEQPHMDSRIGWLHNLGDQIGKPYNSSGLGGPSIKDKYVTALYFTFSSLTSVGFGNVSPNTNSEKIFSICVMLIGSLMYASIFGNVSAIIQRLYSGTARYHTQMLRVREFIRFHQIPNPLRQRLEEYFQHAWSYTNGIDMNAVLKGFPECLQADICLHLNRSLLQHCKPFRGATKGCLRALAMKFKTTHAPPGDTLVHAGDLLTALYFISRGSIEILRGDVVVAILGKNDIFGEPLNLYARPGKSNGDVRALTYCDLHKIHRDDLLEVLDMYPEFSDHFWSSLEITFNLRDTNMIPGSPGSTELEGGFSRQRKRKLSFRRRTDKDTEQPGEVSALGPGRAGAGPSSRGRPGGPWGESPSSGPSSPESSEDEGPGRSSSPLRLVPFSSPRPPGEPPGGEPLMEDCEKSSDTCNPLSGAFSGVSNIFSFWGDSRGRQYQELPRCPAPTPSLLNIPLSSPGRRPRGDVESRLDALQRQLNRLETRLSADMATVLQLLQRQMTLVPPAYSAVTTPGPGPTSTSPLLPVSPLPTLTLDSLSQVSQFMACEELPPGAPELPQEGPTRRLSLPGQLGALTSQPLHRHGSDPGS

Melanocortin receptor 4 [6] = molecular target: T4, Melanocortin receptor 4 (Homo sapiens, UniProt P32245); experiment: Agonist activity at human recombinant MC4 receptor expressed in CHO cells by cAMP responsive beta lactamase reporter gene assay; assay type: functional, cell-based
T4 sequence (P32245 whole entry): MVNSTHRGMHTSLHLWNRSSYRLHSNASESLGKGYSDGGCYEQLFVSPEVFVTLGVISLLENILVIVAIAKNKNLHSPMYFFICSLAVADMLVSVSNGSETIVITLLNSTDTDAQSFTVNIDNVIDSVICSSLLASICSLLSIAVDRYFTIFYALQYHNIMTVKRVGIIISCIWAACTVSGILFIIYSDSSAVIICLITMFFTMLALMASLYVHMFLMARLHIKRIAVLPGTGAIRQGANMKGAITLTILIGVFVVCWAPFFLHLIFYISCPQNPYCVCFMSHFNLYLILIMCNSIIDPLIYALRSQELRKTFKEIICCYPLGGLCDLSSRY

Melanocortin receptor 4 [7] = molecular target: T4, Melanocortin receptor 4; experiment: Displacement of [125I]-MT-II from human recombinant MC4 receptor expressed in CHO cells by scintillation counting
[8] = Tmax in dog at 2.04 mg/kg, sublingual; assay type: ADME, organism-based, Canis lupus familiaris; set-up: dose 2.04 mg/kg; details: in vivo
[9] = Intrinsic clearance in dog liver microsome measured per mg of protein; assay type: ADME, Canis lupus familiaris; details: microsomes
[10] = Peak plasma concentration in rat at 195 mg, po; assay type: ADME, organism-based
[11] = AUC (0 to infinity) in dog at 0.5 mg/kg, po; assay type: ADME, organism-based, Canis lupus familiaris; set-up: time infinity, dose 0.5 mg/kg, route oral; details: plasma
[12] = Tmax in dog at 0.67 mg/kg, sublingual; assay type: ADME, organism-based, Canis lupus familiaris; set-up: dose 0.67 mg/kg; details: in vivo
Homo sapiens [13] = experiment: Reversal of erectile dysfunction in human assessed as non-visual sexual stimulation at 200 mg, po dosed twice with the interval of 7 days after 2 hrs post dose; assay type: functional, organism-based
[14] = Clearance in rat at 1 mg/kg, iv; assay type: ADME, organism-based; set-up: dose 1 mg/kg, route intravenous; details: in vivo
[15] = AUC (0 to infinity) in dog at 0.14 mg/kg, sublingual; assay type: ADME, organism-based, Canis lupus familiaris; set-up: time infinity, route sublingual, dose 0.14 mg/kg; details: plasma
[16] = AUC (0 to infinity) in dog at 2.04 mg/kg, sublingual; assay type: ADME, organism-based, Canis lupus familiaris; set-up: time infinity, dose 2.04 mg/kg, route sublingual; details: plasma
[17] = Tmax in dog at 0.14 mg/kg, sublingual; assay type: ADME, organism-based, Canis lupus familiaris; set-up: dose 0.14 mg/kg; details: in vivo
Homo sapiens [18] = experiment: Reversal of erectile dysfunction in human assessed as visual sexual stimulation at 200 mg, po after 2 hrs post dose; assay type: functional, organism-based
Homo sapiens [19] = experiment: Reversal of erectile dysfunction in human assessed as visual sexual stimulation at 200 mg, po dosed twice with the interval of 7 days measuerd after 2 hrs post-dose on day 7; assay type: functional, organism-based
[20] = Cmax in dog at 0.67 mg/kg, sublingual; assay type: ADME, organism-based, Canis lupus familiaris; set-up: dose 0.67 mg/kg, route sublingual; details: in vivo
[21] = Fraction unbound in rat plasma; assay type: ADME, cell-free
[22] = Terminal half life in human at 195 mg, po; assay type: ADME, organism-based; details: in vivo, read-out: beta t1/2 (converted)
[23] = Drug excretion in rat urine assessed as parent compound level at 195 mg; assay type: ADME; details: read-out: Drug uptake
Melanocortin receptor 5 [24] = molecular target: T2, Melanocortin receptor 5; experiment: Agonist activity at human recombinant MC5 receptor expressed in HEK293 cells assessed as cAMP accumulation by beta lactamase reporter gene assay relative to alpha melanocyte-stimulating hormone; assay type: functional, cell-based
[25] = Half life in dog at 0.67 mg/kg, sublingual; assay type: ADME, organism-based, Canis lupus familiaris; set-up: dose 0.67 mg/kg; details: in vivo
[26] = Bioavailability in dog at 0.14 mg/kg, intranasal; assay type: ADME, organism-based, Canis lupus familiaris; details: in vivo, inhaled or intranasal
[27] = molecular target: T1, Melanocyte-stimulating hormone receptor; experiment: Agonist activity at human recombinant MC1 receptor expressed in HEK293 cells assessed as cAMP accumulation by enzyme fragment complementation assay relative to alpha melanocyte-stimulating hormone; assay type: functional, cell-based
Target sequence in this assay (Q01726 whole entry, looked up, the tested form may be a part): as the sequence (Q01726 whole entry, the tested form may be a part) above

[28] = (§1) Oral bioavailability in dog at 0.5 mg/kg; assay type: ADME, organism-based, Canis lupus familiaris; details: in vivo
[29] = Intrinsic clearance in human liver microsome measured per mg of protein; assay type: ADME; details: liver microsomes
[30] = Volume of distribution at steady state in rat at 1 mg/kg, iv; assay type: ADME, organism-based; set-up: dose 1 mg/kg, route intravenous; details: in vivo, read-out: Vdss
[31] = AUC (0 to infinity) in dog at 0.14 mg/kg, intranasal; assay type: ADME, organism-based, Canis lupus familiaris; set-up: route nasal, time infinity, dose 0.14 mg/kg; details: plasma, inhaled or intranasal
[32] = Fraction unbound in dog plasma; assay type: ADME, cell-free, Canis lupus familiaris
[33] = Bioavailability in dog at 0.67 mg/kg, sublingual; assay type: ADME, organism-based, Canis lupus familiaris; details: in vivo
[34] = Apparent Permeability from basolateral to apical side of MDCK2 cells over expressing MDR1; assay type: ADME, cell-based, Canis lupus familiaris; details: dog, MDCK-MDR1; read-out: permeability
[35] = as §1; assay type: ADME, organism-based, Canis lupus familiaris; details: in vivo; remark: listed apart in the source
[36] = Half life in rat at 1 mg/kg, iv; assay type: ADME, organism-based; set-up: dose 1 mg/kg, route intravenous; details: in vivo
[37] = Cmax in dog at 0.5 mg/kg, po; assay type: ADME, organism-based, Canis lupus familiaris; set-up: dose 0.5 mg/kg, route oral; details: in vivo
[38] = Binding affinity to sigma opioid receptor
[39] = Cmax in dog at 0.14 mg/kg, intranasal; assay type: ADME, organism-based, Canis lupus familiaris; set-up: route nasal, dose 0.14 mg/kg; details: in vivo, inhaled or intranasal
[40] = Drug excretion in iv dosed rat urine; assay type: ADME, organism-based; details: read-out: Drug uptake
[41] = Tmax in dog at 0.5 mg/kg, po; assay type: ADME, organism-based, Canis lupus familiaris; set-up: dose 0.5 mg/kg, route oral; details: in vivo
[42] = Half life in dog at 0.5 mg/kg, po; assay type: ADME, organism-based, Canis lupus familiaris; set-up: dose 0.5 mg/kg, route oral; details: in vivo
[43] = Cmax in dog at 2.04 mg/kg, sublingual; assay type: ADME, organism-based, Canis lupus familiaris; set-up: dose 2.04 mg/kg, route sublingual; details: in vivo
[44] = Lipophilicity, log D at pH 7.4; assay type: physicochemical; details: buffer
[45] = Half life in dog at 2.04 mg/kg, sublingual; assay type: ADME, organism-based, Canis lupus familiaris; set-up: dose 2.04 mg/kg; details: in vivo
Homo sapiens [46] = species: Homo sapiens; experiment: Toxicity in human assessed as minimum effective dose; assay type: organism-based; details: in vivo
[47] = Binding affinity to sodium channel
[48] = Association constant, pKa of the compound; assay type: physicochemical
[49] = Half life in dog at 0.14 mg/kg, intranasal; assay type: ADME, organism-based, Canis lupus familiaris; set-up: dose 0.14 mg/kg; details: in vivo, inhaled or intranasal
[50] = Oral bioavailability in rat at 1 mg/kg; assay type: ADME, organism-based; details: in vivo
[51] = Bioavailability in dog at 2.04 mg/kg, sublingual; assay type: ADME, organism-based, Canis lupus familiaris; details: in vivo
[52] = Volume of distribution at steady state in dog plasma at 0.5 mg/kg, iv; assay type: ADME, organism-based, Canis lupus familiaris; set-up: dose 0.5 mg/kg, route intravenous; details: read-out: Vdss
Homo sapiens [53] = experiment: Reversal of erectile dysfunction in human assessed as non-visual sexual stimulation at 200 mg, po after 2 hrs post dose; assay type: functional, organism-based
[54] = Half life in dog at 0.14 mg/kg, sublingual; assay type: ADME, organism-based, Canis lupus familiaris; set-up: dose 0.14 mg/kg; details: in vivo
[55] = AUC (0 to infinity) in dog at 0.67 mg/kg, sublingual; assay type: ADME, organism-based, Canis lupus familiaris; set-up: route sublingual, dose 0.67 mg/kg, time infinity; details: plasma
[56] = Clearance in dog plasma at 0.5 mg/kg, iv; assay type: ADME, organism-based, Canis lupus familiaris; set-up: dose 0.5 mg/kg, route intravenous
[57] = Half life in dog at 0.5 mg/kg, iv; assay type: ADME, organism-based, Canis lupus familiaris; set-up: dose 0.5 mg/kg, route intravenous; details: in vivo
[58] = Drug excretion in iv dosed rat bile; assay type: ADME, organism-based; details: read-out: Drug uptake
Liver microsomes = experiment: Intrinsic clearance in rat liver microsome measured per mg of protein; assay type: ADME
[59] = Bioavailability in dog at 0.14 mg/kg, sublingual; assay type: ADME, organism-based, Canis lupus familiaris; details: in vivo
[60] = Cmax in dog at 0.14 mg/kg, sublingual; assay type: ADME, organism-based, Canis lupus familiaris; set-up: route sublingual, dose 0.14 mg/kg; details: in vivo
[61] = Tmax in dog at 0.14 mg/kg, intranasal; assay type: ADME, organism-based, Canis lupus familiaris; set-up: dose 0.14 mg/kg; details: in vivo, inhaled or intranasal
[62] = Apparent Permeability from apical to basolateral side of MDCK2 cells over expressing MDR1; assay type: ADME, cell-based, Canis lupus familiaris; details: dog, MDCK-MDR1; read-out: permeability
[63] = Peak plasma concentration in rat at 195 mg, sublingual; assay type: ADME, organism-based

EC50 [1]: > 9000 nM
EC50 (Melanocortin receptor 5 [2]): > 14000 nM
EC50 (Melanocortin receptor 3 [3]): 600 nM
Emax (Melanocortin receptor 3 [4]): 75%
EC50 (Melanocortin receptor 4 [6]): 4 nM
Ki (Melanocortin receptor 4 [7]): 64 nM
SMILES: C[C@@H]1CN(C(=O)[C@H]2CN(c3ccncn3)C[C@@H]2c2ccc(F)cc2F)C[C@H](C)[C@@]1(O)c1ccccc1
Ki [5]: > 10000 nM

SMILES: C[C@@H]1CN(C(=O)[C@@H]2CNC[C@H]2c2ccc(F)cc2F)C[C@H](C)[C@@]1(O)c1ccccc1
EC50 [1]: > 8740 nM
EC50 (Melanocortin receptor 5 [2]): > 20000 nM
EC50 (Melanocortin receptor 3 [3]): > 25200 nM
Ki [5]: 6650 nM
EC50 (Melanocortin receptor 4 [6]): 462 nM
Ki (Melanocortin receptor 4 [7]): 264 nM

Tmax [8]: 0.3 h
clearance [9]: 242 µL/min/mg
Cmax [10]: 30 ng/mL
AUC(0-inf) [11]: 1.8 ng·h/mL
Tmax [12]: 0.3 h
clearance [14]: 89 mL/min/kg
AUC(0-inf) [15]: 17 ng·h/mL
AUC(0-inf) [16]: 146 ng·h/mL
EC50 [1]: 1020 nM
Tmax [17]: 0.7 h
EC50 (Melanocortin receptor 5 [2]): 1980 nM
EC50 (Melanocortin receptor 3 [3]): 1160 nM
Cmax [20]: 15 ng/mL
fraction unbound [21]: 0.07
half-life [22]: 12 h
dose excreted [23]: < 2.5%
Emax (Melanocortin receptor 5 [24]): 100%
half-life [25]: 3.6 h
bioavailability [26]: 24%
Emax (Melanocortin receptor 3 [4]): 99%
Emax [27]: 103%
bioavailability [28]: 1%
microsomal CLint [29]: 45 µL/min/mg
Vd [30]: 19 L/kg
AUC(0-inf) [31]: 12 ng·h/mL
fraction unbound [32]: 0.15
bioavailability [33]: 26%
Papp B→A [34]: 18 ×10⁻⁶ cm/s
bioavailability [35]: 1%
half-life [36]: 2.4 h
Cmax [37]: 0.9 ng/mL
Ki [38]: 330 nM
Cmax [39]: 2.6 ng/mL
dose excreted [40]: < 3%
Tmax [41]: 1 h
half-life [42]: 1.9 h
Cmax [43]: 41 ng/mL
logD [44]: 2.8
half-life [45]: 4 h
Ki [47]: 690 nM
EC50 (Melanocortin receptor 4 [6]): 12 nM
pKa [48]: 8.95
half-life [49]: 3.3 h
bioavailability [50]: 20%
bioavailability [51]: 20%
Vd [52]: 17 L/kg
half-life [54]: 3.7 h
AUC(0-inf) [55]: 64 ng·h/mL
clearance [56]: 46 mL/min/kg
Ki (Melanocortin receptor 4 [7]): 27 nM
half-life [57]: 4.2 h
dose excreted [58]: < 1%
clearance (Liver microsomes): 60 µL/min/mg
bioavailability [59]: 35%
Cmax [60]: 2.6 ng/mL
Tmax [61]: 1.6 h
Papp A→B [62]: 41 ×10⁻⁶ cm/s
Cmax [63]: 31 ng/mL
SMILES: C[C@@H]1CN(C(=O)[C@@H]2CN(C(C)(C)C)C[C@H]2c2ccc(F)cc2F)C[C@H](C)[C@@]1(O)c1ccccc1.Cl
Activity (Homo sapiens [13]): Active
Activity (Homo sapiens [18]): Active
Activity (Homo sapiens [19]): Active
Activity (Homo sapiens [46]): Toxic
Activity (Homo sapiens [53]): Active

Reference: ChEMBL document CHEMBL1156187, “Discovery of a selective small-molecule melanocortin-4 receptor agonist with efficacy in a pilot study of sexual dysfunction in humans” (J Med Chem, 2010)
